Our source for the ΔTm, Selectivity and IC50 values is patent publication EP4818176A1, “TETRACYCLIC DERIVATIVE INHIBITOR, AND PREPARATION METHOD AND USE THEREFOR” (Shanghai Hansoh Biomedical Co., Ltd., priority 2023, dated 2025).

Test [1] addresses T1, PRMT5/MEP50-MTA protein complex (Homo sapiens, UniProt O14744).
T1 construct: purchased Viva Biotech
The test is described as follows: Thermal shift assay: thermal stability (melting temperature) of PRMT5/MEP50-MTA protein complex. In kind it is binding. The settings on record: final compound concentration 8 µM; 2 µM PRMT5/MEP50, 2 µM MTA; Tm minus Tm of DMSO vehicle control. An excerpt:
Test Example 1: Determination of the ability of the compounds of the present invention to improve the thermal stability (melting temperature) of the PRMT5/MEP50-MTA protein complex.
1 Experimental objective: The objective of this test example is to determine the ability of the compound to improve the thermal stability of the PRMT5/MEP50-MTA protein complex, resulting in an increase in the protein melting temperature. 2 Experimental instruments: Quantitative PCR instrument (Quantstudio6 Flex) was purchased from Life Technologies; pipettes were purchased from Eppendorf or Rainin. 3 Experimental reagents and consumables: PRMT5/MEP50 protein was prepared by Viva Biotech; HEPES was purchased from Thermo Fisher Scientific (Cat. No. 15630080); DTT was purchased from Sigma (Cat. No. 43816-10ml); sodium chloride was purchased from Invitrogen (Cat. No. AM9760G); Protein Thermal Shift™ Dye Kit was purchased from Thermo Fisher Scientific (Cat. No. 4461146); methylthioadenosine (MTA) was purchased from Sigma (Cat. No. D5011). 4 Experimental method: In this experiment, the thermal shift method was used to measure the change in the melting temperature (Tm) of the PRMT5/MEP50-MTA protein complex before and after compound binding, thereby characterising the ability of the compound to improve the thermal stability of the PRMT5/MEP50-MTA protein complex. A solution containing 50 mM HEPES, 10 mM DTT, 2 µM MTA, SYPRO Orange and 250 mM NaCl was prepared as the experimental buffer. Human PRMT5/MEP50 protein was added to a final concentration of 2 µM, and the mixture was incubated at room temperature for 30 minutes. The above reaction mixture was aliquoted into 8-strip PCR tubes at 19.5 µL per tube. Then 0.5 µL of test compound or DMSO was added to each tube, providing a total reaction volume of 20 µL and a final compound concentration of 8 µM. 2.5% DMSO was set as the vehicle control. After incubation at room temperature for 10 minutes, the PCR tubes were placed in a PCR instrument, and the melt curve function was selected to measure the melting temperature of the PRMT5/MEP50-MTA protein complex in different treatment groups (heated from 25°C to 95°C, 0.03°C/s). 5 Experimental data processing method: The experimental data files from the PCR instrument were imported into the thermal shift software to obtain the melting temperature (Tm) for each treatment group.

For test [2], the system named is MTAP Knockout HCT116 cells. The test is described as follows: Cell proliferation inhibition (CellTiter-Glo), HCT116 MTAP knockout cells. The class given is cell-based. Particulars: for Selectivity: HCT116 IC50 versus MTAP Knockout HCT116 IC50; for IC50: Homo sapiens. An excerpt:
(§1) Test Example 2: Determination of the inhibitory effect of the compounds of the present invention on the proliferation activity of HCT116 and MTAP Knockout HCT116 cells.
(§2) 1 Experimental objective: The objective of this test example is to determine the inhibitory effect of the compound on the proliferation activity of HCT116 wild-type and HCT116 MTAP knockout cells. 2 Experimental instruments: Centrifuge (Eppendorf 5810R); microplate reader (BioTek Synergy H1 or PerkinElmer Envision); pipette (Eppendorf or Rainin). 3 Experimental reagents: HCT116 and MTAP Knockout HCT116 cells were purchased from Nanjing Cobioer; Cell Titer-Glo was purchased from Promega (Cat. No. G7573); McCoy'5A was purchased from Gibco (Cat. No. 12330031); FBS was purchased from Gibco (Cat. No. 10091148); PBS was purchased from Gibco (Cat. No. 10010023); trypsin was purchased from Gibco (Cat. No. 25200056); cell culture plates were purchased from Corning (Cat. No. 3610). 4 Experimental method: HCT116 and MTAP Knockout HCT116 cells were cultured in McCoy'5A medium containing 10% FBS until an appropriate cell density was reached. The cells were then collected and adjusted to a suitable concentration using complete medium. The cell suspension was seeded into a 96-well plate at 90 µL per well and allowed to adhere overnight in a 37°C, 5% CO2 incubator. Compound solutions of various concentrations were prepared using DMSO and culture medium, with a vehicle control set. The compound solutions were added to the 96-well plate at 10 µL per well, and the plate was incubated in a 37°C, 5% CO2 incubator for an additional 72-240 hours. After incubation, CellTiter-Glo solution was added, and the mixture was mixed uniformly by shaking, followed by incubation in the dark for 10 to 30 minutes. Luminescence was measured using a Synergy H1 or Envision microplate reader. 5 Experimental data processing method: The inhibition rate was calculated using the luminescence signal values, and the concentrations along with the inhibition rates were subjected to non-linear regression curve fitting using Graphpad Prism software to obtain the IC50 values.

In a further test the test system is HCT116 wild-type cells. Briefly: Cell proliferation inhibition (CellTiter-Glo), HCT116 wild-type cells. The settings on record: Homo sapiens. In kind it is cell-based.
Description: as §1, §2
For orientation: ATP-based viability assays read luminescence as a measure of living cells.

The mark [3] stands for this setting: HCT-116, read-out: MTAP Knockout HCT116 IC50.
[4] abbreviates: HCT-116, MTAP Knockout HCT116 cells, proliferation inhibition, Cell Titer-Glo, read-out: MTAP Knockout HCT116 IC50.
Setting [5] is: HCT-116, HCT116 wild-type cells, proliferation inhibition, Cell Titer-Glo, read-out: HCT116 IC50.

Structures are written as SMILES. Like-named read-outs stand apart in the source and are kept apart here.

T1 sequence (O14744 whole entry): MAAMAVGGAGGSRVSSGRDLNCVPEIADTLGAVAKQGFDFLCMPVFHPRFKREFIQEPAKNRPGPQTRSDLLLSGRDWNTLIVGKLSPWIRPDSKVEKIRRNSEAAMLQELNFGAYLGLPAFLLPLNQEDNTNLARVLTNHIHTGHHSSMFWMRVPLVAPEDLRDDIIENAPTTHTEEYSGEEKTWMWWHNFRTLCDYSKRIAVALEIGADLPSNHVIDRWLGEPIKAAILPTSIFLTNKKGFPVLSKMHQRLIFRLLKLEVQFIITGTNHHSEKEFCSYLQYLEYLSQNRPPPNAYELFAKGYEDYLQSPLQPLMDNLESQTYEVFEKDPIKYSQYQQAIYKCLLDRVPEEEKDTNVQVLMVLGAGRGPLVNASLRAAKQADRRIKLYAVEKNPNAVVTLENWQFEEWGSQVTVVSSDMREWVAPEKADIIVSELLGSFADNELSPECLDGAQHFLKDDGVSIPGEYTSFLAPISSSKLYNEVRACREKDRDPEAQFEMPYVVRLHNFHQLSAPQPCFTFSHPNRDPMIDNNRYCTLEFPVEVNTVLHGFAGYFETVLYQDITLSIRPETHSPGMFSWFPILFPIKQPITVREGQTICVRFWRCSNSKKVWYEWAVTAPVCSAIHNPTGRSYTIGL
T1 sequence (Q9BQA1 whole entry partner): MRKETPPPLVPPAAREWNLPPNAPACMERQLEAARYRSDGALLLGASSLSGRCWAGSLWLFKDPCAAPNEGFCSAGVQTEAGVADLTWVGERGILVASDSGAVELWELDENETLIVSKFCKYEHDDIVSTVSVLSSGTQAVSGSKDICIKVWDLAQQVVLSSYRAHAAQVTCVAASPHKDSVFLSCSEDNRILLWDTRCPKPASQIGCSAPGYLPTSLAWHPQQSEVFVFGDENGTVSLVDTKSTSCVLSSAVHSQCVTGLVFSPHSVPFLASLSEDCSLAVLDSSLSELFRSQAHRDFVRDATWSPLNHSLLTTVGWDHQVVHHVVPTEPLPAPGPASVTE

Turning to `CC1CCCN(Cc2ccc(C(F)(F)F)cn2)C(=O)c2cc3c(cc2C1)nc(N)c1cncn13` (racemic) [Example 514, 4-Amino-8-methyl-12-((5-(trifluoromethyl)pyridin-2-yl)methyl)-7,8,9,10,11,12-hexahydro-13H-azo[4,3-g]imidazo[1,5-a]quinoxalin-13-one], in test [1], the ΔTm (in general, the shift of the melting midpoint relative to a reference) at 8 µM worked out at 10.9 °C. The Selectivity in test [2] was 55. In addition, the half-maximal inhibitory concentration (IC50) – broadly, the midpoint of a concentration-inhibition curve – in test [2] (setting [3]) was 15 nM; in the test on HCT116 wild-type cells (HCT-116, read-out: HCT116 IC50), 807 nM.

As for `CC(c1ccc(C(F)(F)F)cn1)N1CC/C=C\c2cc3nc(N)c4cncn4c3cc2C1=O` (single isomer, unassigned) [Example 313-P1], the ΔTm at 8 µM in test [1] came to 11.1 °C. Besides, the Selectivity in test [2] is 59. For the same molecule, the IC50 in test [2] (setting [4]) stood at 17 nM; with HCT116 wild-type cells (setting [5]) it was 1020 nM.

Consider `Nc1nc2cc3c(cc2n2cncc12)C(=O)N([C@@H]1COc2cc(C(F)(F)F)ccc21)CCC/C=C\3` (stereo in doubt) [Example 164-P1, rel-(R, Z)-4-amino-12-(6-(trifluoromethyl)-2,3-dihydrobenzofuran-3-yl)-9,10,11,12-tetrahydro-13H-azo[4,3-g]imidazo[1,5-a]quinoxalin-13-one], for which, in test [1], the ΔTm at 8 µM is 11.2 °C. For the same molecule, in test [2], the Selectivity was found to be 40. Also, the IC50 in test [2] (setting [4]) amounted to 14 nM; in the test with HCT116 wild-type cells (setting [5]), 556 nM.

For the molecule `NC1=NC2C=C3CCCCCN(Cc4ccc(C(F)(F)F)cn4)C(=O)C3=CC2n2cncc21` (centres unmarked) [Example 77, 4-Amino-12-((5-(trifluoromethyl)pyridin-2-yl)methyl)-5a,7,8,9,10,11,12,14a-octahydro-13H-azonino[4,3-g]imidazo[1,5-a]quinoxalin-13-one], the shift in melting temperature (ΔTm) at 8 µM in test [1] is 11 °C. Also, in test [2], the Selectivity is reported as 20. The IC50 was determined as 12 nM in test [2] (setting [4]) and 236 nM in the test with HCT116 wild-type cells (setting [5]).

Regarding `Nc1nc2cc3c(cc2n2cncc12)C(=O)N(C1COCc2nc(C(F)(F)F)ccc21)CC/C=C\3` (centres unmarked) [Example 157, (Z)-4-Amino-11-(2-(trifluoromethyl)-5,8-dihydro-6H-pyrano[3,4-b]pyridin-5-yl)-10,11-dihydroazocino[4,3-g]imidazo[1,5-a]quinoxalin-12(9H)-one], the ΔTm at 8 µM in test [1] amounted to 11.1 °C. The Selectivity in test [2] turned out to be 77. Besides, the IC50 in test [2] (setting [4]) is 23 nM; in the test with HCT116 wild-type cells (setting [5]), 1740 nM.

`Nc1nc2cc3c(cc2c2c1COC2)C(=O)N(Cc1ccc(C(F)(F)F)cn1)CCC/C=C\3` [Example 173, (Z)-4-Amino-12-((5-(trifluoromethyl)pyridin-2-yl)methyl)-1,3,9,10,11,12-hexahydro-13H-azo[3,4-g]furo[3,4-c]quinolin-13-one]: the ΔTm at 8 µM in test [1] came to 11.6 °C. The Selectivity in test [2] worked out at 80. The IC50 is 3.5 nM in test [2] (setting [4]) and 279 nM in the test on HCT116 wild-type cells (setting [5]).

Turning to `CC1CCN(Cc2ccc(C(F)(F)F)cn2)C(=O)c2cc3c(cc2CO1)nc(N)c1cncn13` (centres unmarked) [Example 177, 4-Amino-9-methyl-12-((5-(trifluoromethyl)pyridin-2-yl)methyl)-9,10,11,12-tetrahydroimidazo[1,5-a][1,5]oxazolo[8,7-g]quinoxalin-13(7H)-one], the ΔTm at 8 µM in test [1] is 11.2 °C. Further, the Selectivity in test [2] was 84. In addition, the IC50 in test [2] (setting [3]) stood at 18 nM; in the test on HCT116 wild-type cells (HCT-116, read-out: HCT116 IC50), 1510 nM.

On to `CC1OCc2c1c(N)nc1cc3c(cc21)C(=O)N(Cc1ccc(C(F)(F)F)cn1)CCCOC3` (centres unmarked) [Example 184, 4-Amino-3-methyl-12-((5-(trifluoromethyl)pyridin-2-yl)methyl)-3,7,9,10,11,12-hexahydrofuro[3,4-c][1,5]oxazolo [7,8-g]quinoxalin-13(1H)-one], for which, in test [1], the ΔTm at 8 µM was 11.1 °C. In addition, the Selectivity in test [2] turned out to be 108. For the same molecule, the IC50 turned out to be 21 nM in test [2] (setting [3]) and 2290 nM in the test on HCT116 wild-type cells (HCT-116, read-out: HCT116 IC50).

Take `Cn1ncc2c(N)nc3cc4c(cc3c21)C(=O)N(Cc1ccc(C(F)(F)F)cn1)CCCOC4` [Example 190, 4-Amino-1-methyl-12-((5-(trifluoromethyl)pyridin-2-yl)methyl)-1,7,9,10,11,12-hexahydro-13H-[1,5]oxazolo[7,8-g]pyrazolo[4,3-c]quinolin-13-one]: in test [1], the thermal shift (ΔTm) at 8 µM was 12.2 °C. Moreover, the Selectivity in test [2] stood at 123. Moreover, the IC50 is 6.2 nM in test [2] (setting [3]) and 763 nM with HCT116 wild-type cells (HCT-116, read-out: HCT116 IC50).

On to `Nc1nc2cc3c(cc2n2cncc12)C(=O)N(Cc1ccc(S(F)(F)(F)(F)F)cc1)CCCOC3` [Example 214, 4-Amino-12-(4-(pentafluoro-λ^6-sulphanyl)benzyl)-9,10,11,12-tetrahydroimidazo[1,5-a][1,5]oxazonino[8,7-g]quinoxalin-13(7H)-one], for which the ΔTm at 8 µM in test [1] came to 12.3 °C. In test [2], the Selectivity amounted to 20. In addition, the IC50 in test [2] (setting [4]) is 5.3 nM; with HCT116 wild-type cells (setting [5]) it was 106 nM.

Take `Cn1ncc2c(N)nc3cc4c(cc3c21)C(=O)N(C1COc2cc(C(F)(F)F)ccc21)CCCOC4` (centres unmarked) [Example 270, 4-Amino-1-methyl-12-(6-(trifluoromethyl)-2,3-dihydrobenzofuran-3-yl)-1,7,9,10,11,12-hexahydro-13H-[1,5]oxazonino[7,8-g]pyrazolo[4,3-c]quinolin-13-one]: in test [1], the ΔTm at 8 µM came to 10.8 °C. For the same molecule, the Selectivity in test [2] worked out at 147. The IC50 in test [2] (setting [3]) amounted to 17 nM; with HCT116 wild-type cells (HCT-116, read-out: HCT116 IC50) it was 2450 nM.

Take `Nc1nc2cc3c(cc2n2cncc12)C(=O)N(Cc1ccc(C(F)(F)F)nn1)CC/C=C\3` [Example 418, (Z)-4-Amino-12-(6-(trifluoromethyl)pyridazin-3-yl)methyl-9,10,11,12-tetrahydro-13H-azocino[4,3-g]imidazo[1,5-a]quinoxalin-13-one]: the ΔTm at 8 µM in test [1] was 11.5 °C. In test [2], the Selectivity is given as 54. Besides, the IC50 in test [2] (setting [3]) worked out at 20 nM; with HCT116 wild-type cells (HCT-116, read-out: HCT116 IC50), 1090 nM.

Regarding `Nc1nc2cc3c(cc2n2cncc12)C(=O)N(Cc1ccc(-c2c(F)cncc2F)cn1)CCC/C=C\3` [Example 419, (Z)-4-Amino-12-(3',5'-difluoro-[3,4'-bipyridin]-6-yl)methyl-9,10,11,12-tetrahydro-13H-azonino[4,3-g]imidazo[1,5-a]quinoxalin-13-one], in test [1], the ΔTm at 8 µM came out at 12.7 °C. For the same molecule, the Selectivity in test [2] worked out at 14. Also, the values for the IC50 (in test [2] (setting [4]); with HCT116 wild-type cells (setting [5])) were 3.6 nM and 51 nM, respectively.

Turning to `Cn1ncc2c(N)nc3cc4c(cc3c21)C(=O)N(Cc1ccc(-c2c(F)cccc2F)cn1)CCCOC4` [Example 427, 4-Amino-12-((5-(2,6-difluorophenyl)pyridin-2-yl)methyl)-1-methyl-1,7,9,10,11,12-hexahydro-13H-[1,5]oxazolo[7,8-g]pyrazolo[4,3-c]quinolin-13-one], the ΔTm at 8 µM in test [1] turned out to be 13.7 °C. Moreover, in test [2], the Selectivity is listed as 30. In addition, the IC50 amounted to 0.9 nM in test [2] (setting [3]) and 27 nM in the test with HCT116 wild-type cells (HCT-116, read-out: HCT116 IC50).
